Results published in patent publication US9963462B2 (priority 2015, dated 2018).
Like-named read-outs stand apart in the source and are kept apart here.

What was measured:
[1] = biological target: SNAP-hSPR (sepiapterin reductase, SPR) (Homo sapiens, UniProt P35270); assay: biochemical; assay type: binding; details: terbium labelled SNAP-hSPR / SSZ labelled SNAP-EGFP; read-out: hTR-FRET IC50
[2] = system: BH4 levels in SK-N-BE (2) cells; assay: SKN-N-BE (2) cellular assay, BH4 levels by LC-MS; assay type: cell-based
[3] = Homo sapiens, SKNBE2, read-out: SK-N-BE(2) IC50, SK-N-BE (2) cells, BH4 levels by LC-MS

SNAP-hSPR (sepiapterin reductase, SPR), sequence (P35270 whole entry): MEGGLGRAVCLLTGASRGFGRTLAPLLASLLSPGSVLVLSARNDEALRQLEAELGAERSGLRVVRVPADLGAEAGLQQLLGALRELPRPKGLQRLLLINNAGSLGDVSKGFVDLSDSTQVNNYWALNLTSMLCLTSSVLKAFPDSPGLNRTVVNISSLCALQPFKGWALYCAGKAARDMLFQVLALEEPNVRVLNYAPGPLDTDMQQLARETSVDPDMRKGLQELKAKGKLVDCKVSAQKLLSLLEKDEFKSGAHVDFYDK

SMILES	IC50 [1] [nM]	IC50 [2, 3] [nM]	IC50 ([2]; read-out: SK-N-BE(2) IC50, SK-N-BE (2) cells, BH4 levels by LC-MS) [nM]
Cc1cc(=O)[nH]c(-n2ncc(C(=O)NC3CCCC3)c2C(C)C)n1 [Q-0330]	20	6100	–
Cc1cc(=O)[nH]c(-n2ncc(C(=O)N(C)Cc3ccccc3)c2C)n1 [Q-0318]	6	2100	–
Cc1c(C(=O)N2CC[C@H]3CCCC[C@@H]3C2)cnn1-c1nc2ccsc2c(=O)[nH]1 [Q-0408]	10	75	–
Cc1c(C(=O)N2CCC[C@@H](C(F)(F)F)C2)cnn1-c1nc2c(c(=O)[nH]1)CCC2 (single isomer, unassigned) [Q-0474]	7	600	–
CCC1(C#N)CCN(C(=O)c2cnn(-c3nc4ccsc4c(=O)[nH]3)c2C)CC1 [Q-0562]	4	200	–
Cc1c(C(=O)N2CC3CN(C(=O)OC(C)(C)C)CC3C2)cnn1-c1nn2cccc2c(=O)[nH]1 (stereo not drawn) [Q-0809]	6	900	–
Cc1c(C(=O)N2CCC(C(F)(F)F)CC2)cnn1-c1nc2scnc2c(=O)[nH]1 [Q-0441]	100	31000	–
Cc1c(C(=O)N2CCC(c3cccc4[nH]ccc34)CC2)cnn1-c1nc2c(c(=O)[nH]1)CCC2 [Q-0615]	3	19	–
Cc1c(C(=O)N2C[C@H]3CN(C(=O)OC(C)(C)C)C[C@H]32)cnn1-c1nn2cccc2c(=O)[nH]1 [Q-0842]	2	700	–
Cc1c(C(=O)N2CC3CC(=O)CC3C2)cnn1-c1nn2cccc2c(=O)[nH]1 (stereo not drawn) [Q-0824]	5	1800	–
Cc1cc(=O)[nH]c(-n2ncc(C(=O)N3c4ccccc4C[C@@H]3C)c2C)n1 (single isomer, unassigned) [Q-0372]	5	300	–
CC1CCN(C(=O)c2cnn(-c3nn4cccc4c(=O)[nH]3)c2C2CC2)CC1 [Q-0757]	2	200	–
O=c1[nH]c(-c2ccc(Br)cn2)nc2c1CCC2 [Q-0465]	300	150000	–
Cc1cc(=O)[nH]c(-n2ncc(C(=O)N3CCOCC3)c2C)n1 [Q-0352]	20	13000	–
Cc1c(C(=O)N2CCC(C(O)(C(F)(F)F)C(F)(F)F)CC2)cnn1-c1nc2c(c(=O)[nH]1)CCC2 [Q-0598]	4	–	10
Cc1cc(=O)[nH]c(-n2ccc(C(=O)N3CCOCC3)n2)n1 [Q-0343]	100	40000	–
CCC1(C#N)CCN(C(=O)c2cnn(-c3nn4cc(F)cc4c(=O)[nH]3)c2)CC1 [Q-0746]	4	600	–

SMILES	IC50 [1] [nM]	IC50 [2, 3] [nM]	IC50 ([2]; read-out: SK-N-BE(2) IC50, SK-N-BE (2) cells, BH4 levels by LC-MS) [nM]
CCCN(C)C(=O)c1cnn(-c2nc(C)cc(=O)[nH]2)c1C [Q-0346]	8	5300	–
Cc1c(C(=O)N2CCC(C(F)(F)F)CC2)cnn1-c1nn2c(F)ccc2c(=O)[nH]1 [Q-0606]	2	51	–
Cc1c(C(=O)N2CC(C(F)(F)F)CC(C(F)(F)F)C2)cnn1-c1nc2ccsc2c(=O)[nH]1 (stereo not drawn) [Q-0406]	50	2000	–
O=C(c1cnn(-c2nc3c(c(=O)[nH]2)CCC3)c1C1CC1)N1CCC(C(F)(F)F)CC1 [Q-0463]	4	300	–
Cc1c(C(=O)N2CC3CC3(O)C2)cnn1-c1nc2c(c(=O)[nH]1)CCC2 (stereo not drawn) [Q-0614]	10	1600	–
Cc1c(C(=O)N2C3CCC2CN(C(=O)OC(C)(C)C)C3)cnn1-c1nn2cccc2c(=O)[nH]1 [Q-0739]	2	300	–
Cc1c(C(=O)N2CCN3CCC[C@@H]3C2)cnn1-c1nc2c(c(=O)[nH]1)CCC2 [Q-0575]	3	200	–
O=C(c1cnn(-c2nc3ccsc3c(=O)[nH]2)c1)N1CCC(c2nc3ccccc3s2)CC1 [Q-0528]	70	800	–
Cc1c(C(=O)N2CCn3c(nnc3C(F)(F)F)C2)cnn1-c1nn2cccc2c(=O)[nH]1 [Q-0859]	20	8300	–
O=C(c1cnn(-c2nc3c(c(=O)[nH]2)CCC3)c1)N1CCC(c2nc3cc(F)ccc3s2)CC1 [Q-0707]	5	300	–
Cc1c(C(=O)N2CCC(C#N)(c3ccccc3)CC2)cnn1-c1nn2cccc2c(=O)[nH]1 [Q-0599]	2	12	–
Cc1c(C(=O)N2CCC(c3nc4ccc(F)cc4s3)CC2)cnn1-c1nc2c(c(=O)[nH]1)CCC2 [Q-0590]	3	15	–
Cc1c(C(=O)N2CCC(C(C)(O)C(F)(F)F)CC2)cnn1-c1nc2c(c(=O)[nH]1)CCC2 (stereo not drawn) [Q-0449]	3	78	–
Cc1c(C(=O)N2CCN(c3ccc(C#N)cn3)CC2)cnn1-c1nn2cccc2c(=O)[nH]1 [Q-0845]	3	400	–
Cc1c(C(=O)N2c3ccccc3C[C@H]2C)cnn1-c1nc2ccsc2c(=O)[nH]1 (single isomer, unassigned) [Q-0414]	6	300	–
CCC1(C#N)CCN(C(=O)c2cnn(-c3nc4sccc4c(=O)[nH]3)c2C)CC1 [Q-0563]	5	300	–
